Each structure is given as a SMILES string. pIC50: −log10 of the molar value.

The target in the assay is T1, Human TREX1 enzyme (amino acids 1-242) (Homo sapiens, UniProt Q9NSU2).
T1 construct: Human TREX1 enzyme (amino acids 1-242)
T1 sequence (Q9NSU2 1-242): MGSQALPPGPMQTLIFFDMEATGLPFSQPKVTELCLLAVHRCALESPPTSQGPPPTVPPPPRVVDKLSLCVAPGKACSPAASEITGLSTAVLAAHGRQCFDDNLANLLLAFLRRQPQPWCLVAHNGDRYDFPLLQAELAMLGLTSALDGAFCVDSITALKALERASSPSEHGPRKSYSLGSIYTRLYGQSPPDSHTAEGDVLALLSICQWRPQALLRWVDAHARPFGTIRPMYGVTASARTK
Briefly: Human TREX1 enzymatic assay with dsDNA native oligonucleotide (Picogreen fluorescence). The settings on record: 2 mM dithiothreitol in assay buffer; 50 nM dsDNA oligonucleotide; 30 min preincubation at 25° C.; read-out: TREX1/Human + DTT IC50 AVG. The format is biochemical. A digest of the protocol: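 TREX1 (0.8–0.16 nM final) preincubated with compound (300 μM–13 nM or 30 μM–1.5 nM, 2% DMSO) 30 min at 25 °C in Tris pH 7.7, 5 mM MgCl2, 2 mM DTT. Annealed dsDNA (50 nM) added for 5–15 min at 25 °C; EDTA quench with Picogreen fluorescence readout.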
For the molecule `COc1cc(-c2nc3ncccc3n2C2(C)COC2)c(F)c(O)c1O` [Example 326, 3-fluoro-6-methoxy-4-(1-(3-methyloxetan-3-yl)-1H-imidazo[4,5-b]pyridin-2-yl)benzene-1,2-diol], the pIC50 is 5.00 to 6.00.

Regarding `COc1cc(-c2nc3cc(N4CCN(C(=O)c5ccccc5C)CC4)ccc3[nH]2)cc(O)c1O` [Example 99, (4-(2-(3,4-dihydroxy-5-methoxyphenyl)-1H-benzo[d]imidazol-5-yl)piperazin-1-yl)(o-tolyl)methanone], the pIC50 was 5.00 to 6.00.

For the molecule `COc1cc(-c2nc3ccccc3n2C2COC2)cc(O)c1O` [Example 11, 3-methoxy-5-(1-(oxetan-3-yl)-1H-benzo[d]imidazol-2-yl)benzene-1,2-diol], the pIC50 was 4.00 to 5.00.

Consider `COc1cc(-c2nc3cc(N4CCC4)ccc3n2C2COC2)cc(O)c1O` [Example 284, 5-(5-(azetidin-1-yl)-1-(oxetan-3-yl)-1H-benzo[d]imidazol-2-yl)-3-methoxybenzene-1,2-diol], for which the pIC50 is 5.00 to 6.00.

On to `CCCCN1CCN(c2ccc3[nH]c(-c4cc(O)c(O)c(OC)c4)nc3c2)CC1` [Example 65, 5-(5-(4-butylpiperazin-1-yl)-1H-benzo[d]imidazol-2-yl)-3-methoxybenzene-1,2-diol], for which the pIC50 was under 4.00.

Turning to `COc1cc(-c2nc3ccc(C(=O)NCC4(F)CC4)cc3n2C2(C)COC2)c(F)c(O)c1O` [Example 263, 2-(2-fluoro-3,4-dihydroxy-5-methoxyphenyl)-N-[(1-fluorocyclopropyl)methyl]-1-(3-methyloxetan-3-yl)-1H-1,3-benzodiazole-6-carboxamide.], the pIC50 was at least 7.00.

For the molecule `COc1cc(-c2nc3cc(N4CCN(C(=O)c5ccccc5Cl)CC4)ccc3[nH]2)cc(O)c1O` [Example 111, (2-chlorophenyl)(4-(2-(3,4-dihydroxy-5-methoxyphenyl)-1H-benzo[d]imidazol-5-yl)piperazin-1-yl)methanone], the pIC50 was 5.00 to 6.00.

On to `COc1cc(-c2nc3cc(N4CC(OC)C4)ccc3[nH]2)cc(O)c1O` [Example 144, 3-methoxy-5-(5-(3-methoxyazetidin-1-yl)-1H-benzo[d]imidazol-2-yl)benzene-1,2-diol], for which the pIC50 is 4.00 to 5.00.

In the case of `COc1cc(-c2nc3ccc(C(=O)NC4CCNC4)cc3n2C2(C)COC2)c(F)c(O)c1O` (stereo not shown) [Example 261, 2-(2-fluoro-3,4-dihydroxy-5-methoxyphenyl)-1-(3-methyloxetan-3-yl)-N-(pyrrolidin-3-yl)-1H-benzo[d]imidazole-6-carboxamide], the pIC50 is 6.00 to 7.00.

`COc1cc(-c2nc3ccccc3n2C2(C)CCC2)c(C)c(O)c1O` [Example 225, 6-methoxy-3-methyl-4-(1-(1-methylcyclobutyl)-1H-benzo[d]imidazol-2-yl)benzene-1,2-diol]: the pIC50 is 5.00 to 6.00.

Regarding `COc1cc(-c2nc3ccc(-c4cnn(C)c4)cc3n2C2(C)COC2)c(F)c(O)c1O` [Example 265, 3-fluoro-6-methoxy-4-(6-(1-methyl-1H-pyrazol-4-yl)-1-(3-methyloxetan-3-yl)-1H-benzo[d]imidazol-2-yl)benzene-1,2-diol], the pIC50 was at least 7.00.

`COc1cc(-c2nc3cc(N)ccc3n2C2CCC2)c(C)c(O)c1O` [Example 235, 4-(5-amino-1-cyclobutyl-1H-benzo[d]imidazol-2-yl)-6-methoxy-3-methylbenzene-1,2-diol]: the pIC50 was 6.00 to 7.00.

As to `COc1cc(-c2nc3nc(N4CCC4)ccc3n2C2CCOC2)cc(O)c1O` (stereo not shown) [Example 292, 5-(5-(azetidin-1-yl)-1-(tetrahydrofuran-3-yl)-1H-imidazo[4,5-b]pyridin-2-yl)-3-methoxybenzene-1,2-diol], the pIC50 is 4.00 to 5.00.

In the case of `COc1cc(-c2nc3cc(Nc4ccccc4)ccc3n2C2(C)COC2)c(F)c(O)c1O` [Example 192, 3-fluoro-6-methoxy-4-[1-(3-methyloxetan-3-yl)-5-(phenylamino)-1H-1,3-benzodiazol-2-yl]benzene-1,2-diol], the pIC50 is at least 7.00.

On to `COc1cc(-c2nc3ccncc3n2C)c(-c2cccnc2)c(O)c1O` [Example 93, 6-methoxy-4-(3-methyl-3H-imidazo[4,5-c]pyridin-2-yl)-3-(pyridin-3-yl)benzene-1,2-diol], for which the pIC50 is under 4.00.

In the case of `COc1cc(-c2nc3ccccc3n2C2(C)COC2)c(F)c(O)c1O` [Example 232, 3-fluoro-6-methoxy-4-(1-(3-methyloxetan-3-yl)-1H-benzo[d]imidazol-2-yl)benzene-1,2-diol], the pIC50 was 6.00 to 7.00.

For `COc1cc(-c2nc3cc(N4CCN(C)C(=O)C4)ccc3n2C2(C)COC2)c(F)c(O)c1O` [Example 278, 4-(2-(2-fluoro-3,4-dihydroxy-5-methoxyphenyl)-1-(3-methyloxetan-3-yl)-1H-benzo[d]imidazol-5-yl)-1-methylpiperazin-2-one], the pIC50 was at least 7.00.

For the molecule `COc1cc(-c2nc3cc(N4CCC4)ccc3[nH]2)cc(C(=O)O)c1O` [Example 6, 5-[6-(azetidin-1-yl)-1H-benzimidazol-2-yl]-2-hydroxy-3-methoxybenzoic acid], the pIC50 is 5.00 to 6.00.

For `COc1cc(-c2nc3cc(C(N)=O)ncc3n2C2(C)COC2)c(F)c(O)c1O` [Example 219, 2-(2-fluoro-3,4-dihydroxy-5-methoxyphenyl)-3-(3-methyloxetan-3-yl)-3H-imidazo[4,5-c]pyridine-6-carboxamide], the pIC50 is 6.00 to 7.00.

Take `COc1cc(-c2nc3cc(N4CCN(C(=O)c5ccccn5)CC4)ccc3[nH]2)cc(O)c1O` [Example 97, (4-(2-(3,4-dihydroxy-5-methoxyphenyl)-1H-benzo[d]imidazol-5-yl)piperazin-1-yl)(pyridin-2-yl)methanone]: the pIC50 is 4.00 to 5.00.

In the case of `COc1cc(-c2nc3cc(N4CCN(C(=O)c5ccc(-c6ccccc6)cc5)CC4)ccc3[nH]2)cc(O)c1O` [Example 112, [1,1′-biphenyl]-4-yl(4-(2-(3,4-dihydroxy-5-methoxyphenyl)-1H-benzo[d]imidazol-5-yl)piperazin-1-yl)methanone], the pIC50 is under 4.00.

With `COc1cc(-c2nc3cc(C4CCC4)ccc3[nH]2)cc(O)c1O` [Example 268, 5-(5-cyclobutyl-1H-benzo[d]imidazol-2-yl)-3-methoxybenzene-1,2-diol], the pIC50 is under 4.00.

Take `COc1cc(-c2nc3ccc(N4CCOCC4)cc3n2C)cc(O)c1O` [Example 63, 3-methoxy-5-(1-methyl-6-morpholino-1H-benzo[d]imidazol-2-yl)benzene-1,2-diol]: the pIC50 is 4.00 to 5.00.

Regarding `COc1cc(-c2nc3cnccc3n2C2COC2)cc(O)c1O` [Example 47, 3-methoxy-5-(1-(oxetan-3-yl)-1H-imidazo[4,5-c]pyridin-2-yl)benzene-1,2-diol], the pIC50 is 4.00 to 5.00.

`COc1cc(-c2nc3ccc(N4CCOCC4)cc3n2C2CCOC2)c(C)c(O)c1O` (stereo not shown) [Example 286, 6-methoxy-3-methyl-4-(6-morpholino-1-(tetrahydrofuran-3-yl)-1H-benzo[d]imidazol-2-yl)benzene-1,2-diol]: the pIC50 is 5.00 to 6.00.

Take `COc1cc(-c2nc3ccc(-c4ccc(F)cn4)cc3n2C2(C)COC2)c(F)c(O)c1O` [Example 269, 3-fluoro-4-(6-(5-fluoropyridin-2-yl)-1-(3-methyloxetan-3-yl)-1H-benzo[d]imidazol-2-yl)-6-methoxybenzene-1,2-diol]: the pIC50 was at least 7.00.

Turning to `COc1cc(-c2nc3ccncc3n2C)cc(O)c1O` [Example 44, 3-methoxy-5-(3-methyl-3H-imidazo[4,5-c]pyridin-2-yl)benzene-1,2-diol], the pIC50 is under 4.00.

With `COc1cc(-c2nc3ccccc3n2C2CN(C)C2)c(C)c(O)c1O` [Example 320, 6-methoxy-3-methyl-4-(1-(1-methylazetidin-3-yl)-1H-benzo[d]imidazol-2-yl)benzene-1,2-diol], the pIC50 is under 4.00.

As for `COc1c(O)c(O)c(C)c(-c2nc3ccccc3n2C2CCC2)c1F` [Example 323, 4-(1-cyclobutyl-1H-benzo[d]imidazol-2-yl)-5-fluoro-6-methoxy-3-methylbenzene-1,2-diol], the pIC50 is 5.00 to 6.00.

Consider `COc1cc(-c2nc3ccc(C(=O)NC4CNC4)cc3n2C2(C)COC2)c(F)c(O)c1O` [Example 259, N-(azetidin-3-yl)-2-(2-fluoro-3,4-dihydroxy-5-methoxyphenyl)-1-(3-methyloxetan-3-yl)-1H-1,3-benzodiazole-6-carboxamide], for which the pIC50 was at least 7.00.

For the molecule `COc1cc(-c2nc3cc(N4CCN(C(=O)c5ccccc5)CC4)ccc3[nH]2)c(F)c(O)c1O` [Example 159, (4-(2-(2-fluoro-3,4-dihydroxy-5-methoxyphenyl)-1H-benzo[d]imidazol-5-yl)piperazin-1-yl)(phenyl)methanone], the pIC50 is 5.00 to 6.00.

With `COc1cc(-c2nc3ccc(C(=O)NC(C)(C)C)cc3n2C2(C)COC2)c(F)c(O)c1O` [Example 243, N-tert-butyl-2-(2-fluoro-3,4-dihydroxy-5-methoxyphenyl)-1-(3-methyloxetan-3-yl)-1H-1,3-benzodiazole-6-carboxamide], the pIC50 is 6.00 to 7.00.

With `COc1cc(-c2nc3ccc(C(=O)Nc4ccccc4)cc3n2C2(C)COC2)c(F)c(O)c1O` [Example 246, 2-(2-fluoro-3,4-dihydroxy-5-methoxyphenyl)-1-(3-methyloxetan-3-yl)-N-phenyl-1H-benzo[d]imidazole-6-carboxamide], the pIC50 is at least 7.00.

With `COc1cc(-c2nc3cc(N4CCOCC4)ncc3[nH]2)cc(O)c1O` [Example 55, 3-methoxy-5-(6-morpholino-3H-imidazo[4,5-c]pyridin-2-yl)benzene-1,2-diol], the pIC50 is under 4.00.

The values above are taken from patent US20230234943A1, “TREX1 INHIBITORS AND USES THEREOF” (Tempest Therapeutics, Inc., priority 2020, published 2023).
